Measured values taken from US11066372B2, “Deuterated benzimidazole compound and medical use thereof” (Sumitomo Dainippon Pharma Co., Ltd., priority 2017, dated 2021).

How the values were obtained:
[1] = target: human SCN9A (Nav 1.7) (Homo sapiens, UniProt Q15858); experiment: Measurement of Na ion current (Nav 1.7) by automated patch clamp assay in cells stably-expressing human SCN9A; type: cell-based; conditions: compound concentration 10 μmol/L, holding potential inactivating 50% Nav 1.7 channel (around −60 mV); for inhibition at 10 µM: read-out: Inhibitory rate (%) of Na ion current
Protocol: Test 1: Measurement of Na Ion Current in Voltage-Dependent Na Channel Gene Expressed Cell
Nav 1.7 current was measured by automated patch clamp assay using cells stably-expressing human SCN9A.
Cells Stably-Expressing Human SCN9A
Tetracycline-induced cells stably-expressing SCN9A were obtained from ChanTest Corporation. The cells were passaged in Ham's F-12 medium containing 10% fetal bovine serum, 100 units/mL Penicillin-Streptomycin, 0.01 mg/mL Blasticidin, and 0.4 mg/mL Zeocin. The day before the measurement, the medium was replaced with Ham's F-12 medium containing 1 μg/mL tetracycline, 100 μmol/L sodium butyrate, 10% fetal bovine serum, and 100 units/mL Penicillin-Streptomycin. Next day, the Na ion current was measured by automated patch clamp assay.
Electrophysiologic Measurement of Na Ion Current
The Na ion current was measured by automated patch clamp assay using the following extracellular solution and intracellular solution.
Extracellular solution (mmol/L): NaCl 130, MgCl2 2, CaCl2 2, CdCl2 0.1, NiCl2 0.1, Tetraethylammonium-Cl 18, 4-aminopyridine 1, HEPES 10, (adjusting pH 7.4 with NaOH)
Intracellular solution (mmol/L): CsF 120, EGTA 10, NaCl 15, HEPES 10, (adjusting pH 7.2 with CsOH)
The control of the stimulating pulse and the data acquisition were carried out using EPC10 amplifier and Patch Master Software (HEKA). Data were sampled at 10 kHz, and low-pass filtered at 3 kHz. All the measurements were carried out at room temperature. The holding potential was set at a potential inactivating 50% Nav 1.7 channel (around −60 mV), and depolarizing pulse of 20 milliseconds (+10 mV) was given once. […] The inhibitory rate of the Na ion current by the test compounds was calculated according to the following calculating formula with the peak current value generated by the depolarizing pulse. Inhibitory rate of Na ion current (%)=100×[(Peak current value in the absence of Test Compound)−(Peak current value in the presence of Test Compound)]/(Peak current value in the absence of Test Compound) Result: […]

[2] = Metabolic stability test in liver microsome (human); type: in vitro ADME; conditions: NADPH, 37° C., 30 minutes, dealkyl metabolite product (Reference example 5-7) assayed
Protocol: (§1) Test 3: Metabolic Stability Test in Liver Microsome
(§2) To a solution obtained by mixing 4 μL of human or rat liver microsome (produced by Xenotech, 20 mg/mL), 100 μL of 100 mM phosphate buffer solution (pH 7.4), and 74 μL of ultrapure water were added 2 μL of 1 μM DMSO solution of the test compound and further 40 μL of 10 mM aqueous NADPH (produced by Oriental Yeast Co., ltd.), and then the mixture was incubated at 37° C. for 30 minutes. After the incubation, 50 μL of the reaction solution was added to methanol to cease the metabolic reaction. The quenched solution was centrifuged at 4° C. at 4500 rpm for 5 minutes, and the supernatant was filtrated. 100 μL of the supernatant was mixed with 100 μL of 10 mM aqueous ammonium acetate, and the mixture was analyzed with LC (Shimadzu, NexeraX2)-MS (AB Sciex, TripleTOF5600) to determine the amount of the corresponding metabolite product in the mixture.

[3] = system: rats streptozotocin (STZ)-induced diabetic peripheral neuropathy model; experiment: Analgesic effect (von Frey test) in streptozotocin-induced diabetic peripheral neuropathic pain model; type: in vivo, rat; conditions: orally administered 3 mg/kg, one hour before measuring, male Wistar rats
Protocol: Test 2: Evaluation of Analgesic Effect in Streptozotocin-Induced Diabetic Peripheral Neuropathic Pain Models
Using some typical compounds among the compounds of the present invention, the inhibitory effect for neuropathic pain was determined through the evaluation of analgesic effect in rats streptozotocin (STZ)-induced diabetic peripheral neuropathy model.
The disease animal model was prepared by means of a partially-modified method of Fox et al. (Pain 81, 307-316, 1999). STZ was intraperitoneally administered to 9-week old male Wistar rats in 45 mg/kg of body weight to prepare animal model suffering from diabetic peripheral neuropathy.
The analgesic effect was evaluated by von Frey test. Specifically, mechanical sensitivity was measured by applying hairs (von Frey hair) to the plantar surface of the animal's hind paw, and then the reaction thresholds (50% paw withdrawal thresholds) for the mechanical stimulation was determined by using a formula based on Chaplan et al. (Journal of Neuroscience Methods 53, 55-63, 1994).
One and two days before evaluating the test compounds, the reaction thresholds were measured to obtain an average thereof, and the average value was used as a reference value obtained before the test compounds would be administered. […]
In the evaluation test of the test compounds, the reaction thresholds were measured after administering each test compound. […]

[4] = Metabolic stability test in liver microsome (rat); type: in vitro ADME; conditions: NADPH, 37° C., 30 minutes, dealkyl metabolite product (Reference example 5-7) assayed
Protocol: as §1, §2

Chain of human SCN9A (Nav 1.7) (Q15858 whole entry): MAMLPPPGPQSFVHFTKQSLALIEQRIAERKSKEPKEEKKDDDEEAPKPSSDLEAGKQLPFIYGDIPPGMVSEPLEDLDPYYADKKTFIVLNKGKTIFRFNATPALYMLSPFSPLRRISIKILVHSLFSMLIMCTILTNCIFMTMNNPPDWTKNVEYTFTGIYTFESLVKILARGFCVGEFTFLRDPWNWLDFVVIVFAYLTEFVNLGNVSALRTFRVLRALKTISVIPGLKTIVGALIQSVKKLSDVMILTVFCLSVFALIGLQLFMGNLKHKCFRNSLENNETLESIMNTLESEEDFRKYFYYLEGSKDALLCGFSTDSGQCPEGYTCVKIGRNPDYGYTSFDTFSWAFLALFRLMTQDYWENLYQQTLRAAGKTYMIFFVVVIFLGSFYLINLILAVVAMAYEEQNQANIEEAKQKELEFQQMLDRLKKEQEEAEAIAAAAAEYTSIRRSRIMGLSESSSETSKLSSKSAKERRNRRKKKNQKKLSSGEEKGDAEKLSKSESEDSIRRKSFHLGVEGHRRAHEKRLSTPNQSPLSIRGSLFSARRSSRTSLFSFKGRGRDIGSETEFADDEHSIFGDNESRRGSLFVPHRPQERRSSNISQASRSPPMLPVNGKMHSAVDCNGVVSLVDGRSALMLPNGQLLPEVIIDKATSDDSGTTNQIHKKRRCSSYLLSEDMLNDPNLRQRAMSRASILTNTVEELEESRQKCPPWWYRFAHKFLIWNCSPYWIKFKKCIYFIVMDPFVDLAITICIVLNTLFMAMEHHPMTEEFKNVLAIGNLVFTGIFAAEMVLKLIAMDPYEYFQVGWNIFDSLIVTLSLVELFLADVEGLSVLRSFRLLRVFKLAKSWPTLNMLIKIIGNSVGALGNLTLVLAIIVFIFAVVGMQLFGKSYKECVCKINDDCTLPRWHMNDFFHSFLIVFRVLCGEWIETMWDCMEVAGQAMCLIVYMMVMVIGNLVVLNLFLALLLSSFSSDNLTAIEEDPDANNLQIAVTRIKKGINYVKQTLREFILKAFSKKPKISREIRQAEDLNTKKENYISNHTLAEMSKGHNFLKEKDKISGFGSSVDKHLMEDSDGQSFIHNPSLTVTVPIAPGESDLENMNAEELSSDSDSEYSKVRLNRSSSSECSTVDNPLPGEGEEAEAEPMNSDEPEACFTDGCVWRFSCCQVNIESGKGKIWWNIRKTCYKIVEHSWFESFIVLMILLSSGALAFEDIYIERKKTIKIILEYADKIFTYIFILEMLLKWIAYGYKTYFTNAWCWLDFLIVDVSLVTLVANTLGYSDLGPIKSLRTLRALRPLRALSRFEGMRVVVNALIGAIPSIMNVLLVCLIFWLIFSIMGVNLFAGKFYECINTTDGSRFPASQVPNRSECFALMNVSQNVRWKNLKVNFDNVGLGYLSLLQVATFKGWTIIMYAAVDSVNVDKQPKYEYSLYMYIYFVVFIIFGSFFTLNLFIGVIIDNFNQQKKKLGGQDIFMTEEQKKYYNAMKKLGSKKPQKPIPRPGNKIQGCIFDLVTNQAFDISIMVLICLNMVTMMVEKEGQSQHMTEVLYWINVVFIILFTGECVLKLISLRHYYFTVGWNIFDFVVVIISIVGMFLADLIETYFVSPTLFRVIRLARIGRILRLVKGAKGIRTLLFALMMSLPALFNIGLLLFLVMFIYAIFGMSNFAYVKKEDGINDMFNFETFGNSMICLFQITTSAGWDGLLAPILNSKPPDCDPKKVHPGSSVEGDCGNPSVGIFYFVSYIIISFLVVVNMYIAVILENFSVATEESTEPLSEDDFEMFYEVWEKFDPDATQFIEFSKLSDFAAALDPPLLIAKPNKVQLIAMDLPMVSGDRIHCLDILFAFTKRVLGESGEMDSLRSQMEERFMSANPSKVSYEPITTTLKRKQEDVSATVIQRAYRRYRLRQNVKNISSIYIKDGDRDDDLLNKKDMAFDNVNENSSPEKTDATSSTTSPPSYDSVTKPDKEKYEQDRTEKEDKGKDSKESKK

Molecule | Inhibitory rate (%) of Na ion current [1] | Rate of generating the metabolite product, human [2] | extension width of reaction thresholds (50% paw withdrawal threshold, after minus before administration) [3] | Rate of generating the metabolite product, rat [4] | inhibition at 10 µM [1]
1-[6-(4-fluorophenoxy)-1H-benzimidazol-1-yl]-2-methyl (1,1-^2H2) propan-2-ol [Example 1] | 36% | – | – | – | –
2-methyl-1-(6-{[5-(trifluoromethyl)pyridin-2-yl]oxy}-1H-benzimidazol-1-yl) (1,1-^2H2)propan-2-ol [Example 2] | 36% | 0.026 pmol/min/mg protein | 5.0 g | 0.260 pmol/min/mg protein | –
4-[6-(4-chlorophenoxy)-1H-benzimidazol-1-yl]-2-methyl(4,4-^2H2)butan-2-ol [Example 3] | 40% | 0.069 pmol/min/mg protein | – | 0.40 pmol/min/mg protein | –
[2H]C([2H])(n1cnc2ccc(Oc3ccc(OC(F)(F)F)cc3)cc21)C1(O)COC1 [Example 4, 3-[{6-[4-(trifluoromethoxy)phenoxy]-1H-benzimidazol-1-yl}(^2H2)methyl]oxetan-3-ol] | – | – | – | – | 68%
[2H]C([2H])(n1cnc2ccc(-c3ccc(C(F)(F)F)cc3OC)cc21)C1(O)COC1 [Example 5, 3-[{6-[2-methoxy-4-(trifluoromethyl)phenyl]-1H-benzimidazol-1-yl}(^2H2)methyl]oxetan-3-ol] | – | – | – | – | 55%
